# pEC50: −log10 of the molar value.
# How the values were obtained:
# [1] = test system: A549; experiment: Cytotoxic activity against human lung cancer A549 cell line was determined; format: functional; conditions: read-out: ED50 (the source's name)
# [2] = test system: MCF7; experiment: Cytotoxic activity against human breast cancer MCF-7 cell line was determined; format: functional; conditions: read-out: ED50 (the source's name)
# [3] = test system: SK-MEL-2; experiment: Cytotoxic activity against human melanoma SK-MEL-2 was determined; format: functional; conditions: read-out: ED50 (the source's name)
# [4] = test system: Cancer cell lines; experiment: Average cytotoxic activity (AC) in three cancer cell lines A549, SK-MEL-2 and MCF-7 was calculated; format: functional, Homo sapiens; set-up: unit not given beside the values
SMILES,pEC50 [1],pEC50 [2],pEC50 [3],AC [4]
COc1cc(-n2c(-c3ccc4c(c3)OCO4)coc2=O)cc(OC)c1OC,7.19,7.19,7.19,64.5
COc1ccc(C2=C(c3cc(OC)c(OC)c(OC)c3)C(=O)OC2)cc1O,7.79,7.94,7.99,12.6
COc1cc(C2=C(c3ccc(N)cc3)COC2=O)cc(OC)c1OC,7.26,7.48,7.31,45.7
COc1cc(C2=C(c3ccc4c(c3)OCO4)COC2=O)cc(OC)c1OC,7.00,7.09,7.15,83.8
COc1ccccc1C1=C(c2cc(OC)c(OC)c(OC)c2)C(=O)OC1,< 5.30,< 5.30,< 5.30,>5000
COc1cc([C@@H]2c3cc4c(cc3C[C@H]3COC(=O)[C@@H]32)OCO4)cc(OC)c1OC [DESOXYPODOPHYLLOTOXIN],7.81,7.93,8.08,11.9

# Reference: ChEMBL document CHEMBL1135215, “Synthesis and cytotoxicity of 3,4-diaryl-2(5H)-furanones” (2002)
